Assay: Phase 1b safety and tolerability of HBI-8000 combined with nivolumab (DLTs, TEAEs)
Assay type: in vivo
Settings: for Dose-limiting toxicity (DLT): + nivolumab, 28 days
Experimental: The present example, was a Phase Ib/2 open-label dose finding study for HBI-8000 (also referred to in the art as “chidamide” or “tucidinostat” and also referred to herein as a compound of formula I) in combination with nivolumab in patients with advanced solid tumors, including melanoma, RCC (renal cell carcinoma), and NSCLC (non-small cell lung cancer). This study was conducted in accordance with Good Clinical Practice guidelines and the Declaration of Helsinki and with assurance/approval from the US Department of Health and Human Services; the protocol was approved by the institutional review boards or ethics committees of all participating sites. All patients provided written informed consent to participate before enrollment. […]
HBI-8000 at three dose levels (20 mg, 30 mg, and 40 mg) given orally twice a week (BIW) were evaluated. Doses were taken approximate 30 minutes after a meal. The starting dose (20 mg) was selected based on pharmacokinetic profiles established for monotherapy in Japanese patients with T-cell lymphoma.
The decision to escalate the dose was based on the conventional 3+3 design and observed incidences of dose-limiting toxicities (DLTs). Each treatment cycle was defined as 28 days. […] Subjects experiencing DLT within the first two weeks after having received 100% of assigned dose of HBI-8000 are also evaluable for DLT. Unacceptable toxicities were defined as grade 3 or higher non-hematologic and hematologic toxicities with clinical complications. Unacceptable toxicities observed over the first 28 days following HBI-8000 administration were considered as DLTs. […] HBI-8000 administration continued until disease progression or unacceptable toxicity was observed. The efficacy of the combination was further evaluated in an expanded cohort of selected patient populations at RP2D based on an objective response rate according to Response Evaluation Criteria in Solid Tumors (RECIST) version 1.1 criteria, progression-free survival, and duration of responses.
Safety evaluations included physical examinations, vital signs, ECGs, ECOG performance status, and laboratory tests.
Statistical analyses of safety, tolerability, and anti-tumor activity were primarily descriptive in nature. Toxicities were tabulated by type and grade. The safety population included all patients who received ≥1 dose of HBI-8000 and nivolumab. Continuous variables were summarized using descriptive statistics and categorical variables were summarized with number and percentage at each category. Pharmacokinetic parameters were derived using noncompartmental methods with Phoenix® WinNonlin® Version 6.4 (Certara, L. P., Princeton, NJ, USA).

[1] = 40 mg HBI-8000 BIW + nivolumab, N = 7
[2] = 20, 30 and 40 mg HBI-8000 + nivolumab, N = 17

Nc1cc(F)ccc1NC(=O)c1ccc(CNC(=O)/C=C/c2cccnc2)cc1 [HBI-8000, N-(2-amino-4-fluorophenyl)-4-[[[(2E)-1-oxo-3-(3-pyridinyl)-2-propen-1-yl]amino]methyl]benzamide]
Any SAE, number of subjects [1]: 4 n
Any TEAE, number of subjects [1]: 7 n
Aspartate aminotransferase increased, All, G < 3 [1]: 1 (14) n (%)
Aspartate aminotransferase increased, Related Both, Any G [1]: 1 (14) n (%)
Atrial fibrillation, All, G < 3 [1]: 2 (29) n (%)
Atrial fibrillation, All, G ≥ 3 [1]: 1 (14) n (%)
Atrial fibrillation, Related Both, Any G [1]: 1 (14) n (%)
Contusion, All, G < 3 [1]: 3 (43) n (%)
Contusion, Related Both, Any G [1]: 2 (29) n (%)
Contusion, Related HBI, Any G [1]: 1 (14) n (%)
Decreased appetite, All, G < 3 [1]: 3 (43) n (%)
Decreased appetite, All, G ≥ 3 [1]: 1 (14) n (%)
Decreased appetite, Related Both, Any G [1]: 1 (14) n (%)
Decreased appetite, Related HBI, Any G [1]: 2 (29) n (%)
Dehydration, All, G < 3 [1]: 2 (29) n (%)
Diarrhoea, All, G < 3 [1]: 2 (29) n (%)
Diarrhoea, All, G ≥ 3 [1]: 1 (14) n (%)
Diarrhoea, Related Both, Any G [1]: 2 (29) n (%)
Diarrhoea, Related HBI, Any G [1]: 1 (14) n (%)
Dizziness, All, G < 3 [1]: 2 (29) n (%)
Dizziness, Related Both, Any G [1]: 1 (14) n (%)
Dizziness, Related HBI, Any G [1]: 1 (14) n (%)
Dyspnoea, All, G < 3 [1]: 3 (43) n (%)
Dyspnoea, All, G ≥ 3 [1]: 1 (14) n (%)
Dyspnoea, Related Both, Any G [1]: 1 (14) n (%)
Fall, All, G < 3 [1]: 2 (29) n (%)
Fatigue, All, G < 3 [1]: 2 (29) n (%)
Fatigue, All, G ≥ 3 [1]: 2 (29) n (%)
Fatigue, Related Both, Any G [1]: 2 (29) n (%)
Fatigue, Related HBI, Any G [1]: 1 (14) n (%)
Headache, All, G < 3 [1]: 1 (14) n (%)
Headache, All, G ≥ 3 [1]: 1 (14) n (%)
Headache, Related Both, Any G [1]: 1 (14) n (%)
Headache, Related HBI, Any G [1]: 1 (14) n (%)
Hypocalcaemia, All, G < 3 [1]: 2 (29) n (%)
Hypocalcaemia, Related Both, Any G [1]: 1 (14) n (%)
Hypocalcaemia, Related HBI, Any G [1]: 1 (14) n (%)
Hypokalemia, All, G < 3 [1]: 1 (14) n (%)
Hypokalemia, Related Both, Any G [1]: 1 (14) n (%)
Hypophosphataemia, All, G < 3 [1]: 2 (29) n (%)
Hypophosphataemia, Related Both, Any G [1]: 1 (14) n (%)
Hypophosphataemia, Related HBI, Any G [1]: 1 (14) n (%)
Hypotension, All, G < 3 [1]: 3 (43) n (%)
Hypotension, Related Both, Any G [1]: 1 (14) n (%)
Lipase increased, All, G < 3 [1]: 1 (14) n (%)
Lipase increased, Related Both, Any G [1]: 1 (14) n (%)
Lymphocyte count decreased, All, G < 3 [1]: 2 (29) n (%)
Lymphocyte count decreased, Related Both, Any G [1]: 2 (29) n (%)
Nausea, All, G < 3 [1]: 3 (43) n (%)
Nausea, Related Both, Any G [1]: 2 (29) n (%)
Nausea, Related HBI, Any G [1]: 2 (29) n (%)
Neutrophil count decreased, All, G < 3 [1]: 2 (29) n (%)
Neutrophil count decreased, All, G ≥ 3 [1]: 1 (14) n (%)
Neutrophil count decreased, Related Both, Any G [1]: 1 (14) n (%)
Neutrophil count decreased, Related HBI, Any G [1]: 1 (14) n (%)
Non-cardiac chest pain, All, G < 3 [1]: 2 (29) n (%)
Non-cardiac chest pain, Related HBI, Any G [1]: 1 (14) n (%)
Oedema peripheral, All, G < 3 [1]: 2 (29) n (%)
Oedema peripheral, Related Both, Any G [1]: 1 (14) n (%)
Platelet count decreased, All, G < 3 [1]: 3 (43) n (%)
Platelet count decreased, Related Both, Any G [1]: 1 (14) n (%)
Platelet count decreased, Related HBI, Any G [1]: 2 (29) n (%)
Pleural effusion, All, G < 3 [1]: 2 (29) n (%)
SAE related to HBI-8000 & Nivolumab, number of subjects [1]: 0 n
SAE related to HBI-8000 alone, number of subjects [1]: 0 n
TEAE related to HBI-8000 & Nivolumab, number of subjects [1]: 3 n
TEAE related to HBI-8000 alone, number of subjects [1]: 6 n
TEAE resulting in discontinuation of HBI-8000 alone, number of subjects [1]: 2 n
TEAE resulting in discontinuation of both HBI-8000 and Nivo, number of subjects [1]: 2 n
Vomiting, All, G < 3 [1]: 2 (29) n (%)
Vomiting, Related Both, Any G [1]: 2 (29) n (%)
Weight decreased, All, G < 3 [1]: 1 (14) n (%)
Weight decreased, Related Both, Any G [1]: 1 (14) n (%)
White blood cell count decreased, All, G < 3 [1]: 3 (43) n (%)
White blood cell count decreased, Related Both, Any G [1]: 1 (14) n (%)
White blood cell count decreased, Related HBI, Any G [1]: 2 (29) n (%)
Incidence of TEAE related to HBI-8000 alone versus dose (20, 30, 40 mg BIW + nivolumab): appeared to increase with escalating HBI-8000 dose
Alanine aminotransferase increased, Total [2]: 4 (24) n (%)
Anaemia, Total [2]: 8 (47) n (%)
Aspartate aminotransferase increased, Total [2]: 4 (24) n (%)
Atrial fibrillation, Total [2]: 4 (24) n (%)
Back pain, Total [2]: 4 (24) n (%)
Contusion, Total [2]: 4 (24) n (%)
Decreased appetite, Total [2]: 9 (53) n (%)
Dehydration, Total [2]: 5 (29) n (%)
Diarrhoea, Total [2]: 7 (41) n (%)
Dizziness, Total [2]: 5 (29) n (%)
Dyspnoea, Total [2]: 9 (53) n (%)
Fall, Total [2]: 4 (24) n (%)
Fatigue, Total [2]: 10 (59) n (%)
Headache, Total [2]: 4 (24) n (%)
Hypocalcaemia, Total [2]: 6 (35) n (%)
Hypokalemia, Total [2]: 5 (29) n (%)
Hypophosphataemia, Total [2]: 5 (29) n (%)
Hypotension, Total [2]: 5 (29) n (%)
Hypoxia, Total [2]: 4 (24) n (%)
Lipase increased, Total [2]: 5 (29) n (%)
Lymphocyte count decreased, Total [2]: 5 (29) n (%)
Nausea, Total [2]: 8 (47) n (%)
Neutrophil count decreased, Total [2]: 4 (24) n (%)
Non-cardiac chest pain, Total [2]: 4 (24) n (%)
Oedema peripheral, Total [2]: 7 (41) n (%)
Platelet count decreased, Total [2]: 7 (41) n (%)
Pleural effusion, Total [2]: 5 (29) n (%)
Vomiting, Total [2]: 4 (24) n (%)
Weight decreased, Total [2]: 7 (41) n (%)
White blood cell count decreased, Total [2]: 5 (29) n (%)
Dose-limiting toxicity (DLT) (20-mg dose cohort, 3 DLT-evaluable patients): None
Dose-limiting toxicity (DLT) (30-mg BIW dose cohort, 3 + 3 DLT-evaluable patients): None and No DLT
Patients with DLT: Grade 3 fatigue on days of HBI-8000 administration (40-mg cohort, 6 DLT-evaluable patients, RCC patient): 1 patient
Patients with DLT: Grade 3 headache after first dose and grade 3 diarrhea after third dose (40-mg cohort, 6 DLT-evaluable patients, melanoma patient): 1 patient
Any SAE, number of subjects (Total, all dose levels, N = 17): 11 n
Any TEAE, number of subjects (Total, all dose levels, N = 17): 17 n
TEAE related to HBI-8000 & Nivolumab, number of subjects (Total, all dose levels, N = 17): 11 n
TEAE related to HBI-8000 alone, number of subjects (Total, all dose levels, N = 17): 10 n
TEAE resulting in discontinuation of HBI-8000 alone, number of subjects (Total, all dose levels, N = 17): 5 n
TEAE resulting in discontinuation of both HBI-8000 and Nivo, number of subjects (Total, all dose levels, N = 17): 3 n
Patients who died of TEAE (unrelated to HBI-8000 or nivolumab) (all dose levels, N = 17): One
Patients with Grade 3 or higher TEAEs (all dose levels, N = 17): 15 patients
Patients with only Grade 1 and 2 TEAEs (all dose levels, N = 17): Two
Subjects with TEAEs attributed to the combination and TEAEs associated with HBI-8000 alone (all dose levels, N = 17): Six
Recommended phase II dose (RP2D) (in combination with nivolumab): 30 mg BIW
Maximum tolerated dose (MTD) (oral BIW in combination with nivolumab): < 40 mg

Reference: US20240252474A1, “METHODS AND COMPOSITIONS COMPRISING A CARDIO-TOLERATED HDAC INHIBITOR” (HUYABIO International, LLC, priority 2023, published 2024)
